# Measurements published in US7161031B2, “Amino-substituted sulfonanilides and derivatives thereof for treating proliferative disorders” (Temple University - Of The Commonwealth System of Higher …, priority 2002, dated 2007).
# Assays:
# Assay in all cases: Tumor cell killing, viable cell count by trypan blue exclusion
# Format in all cases: cell-based
# BT20 tumor cell line = details: BT20 cells, viable cells counted 96 hours after treatment
# Procedure: (§1) The effect of the amino-substituted sulfonanilides on normal fibroblasts and on tumor cells may be determined by the assay described by Latham et al., Oncogene 12:827–837 (1996). Normal diploid lung human fibroblasts (HFL-1) or tumor cells (e.g., prostate, colorectal, breast, glial, pancreatic, ovarian, lung or leukemic) are plated in 6-well dishes at a cell density of 1.0×10^5 cells per […]. The plated cells are treated 24 hours later with various concentrations of amino-substituted sulfonanilide dissolved in dimethyl sulfoxide (DMSO). The total number of viable cells is determined 96 hours later by trypsinizing the wells and counting the number of viable cells, as determined by trypan blue exclusion, using a hemacytometer. Normal HFL cells are treated with the same compounds under the same conditions of concentration and time. Biological data for compounds of the present invention is shown in Table 5 below in DU145, BT20, DLD1 and H157 tumor cell lines.
# DU145 tumor cell line = details: DU145 cells, viable cells counted 96 hours after treatment
# Procedure: as §1
# H157 tumor cell line = details: H157 cells, viable cells counted 96 hours after treatment
# Procedure: as §1
# DLD1 tumor cell line = details: DLD1 cells, viable cells counted 96 hours after treatment
# Procedure: as §1
Compound,tumor cell killing activity BT20 (BT20 tumor cell line),tumor cell killing activity DU145 (DU145 tumor cell line),tumor cell killing activity H157 (H157 tumor cell line),tumor cell killing activity DLD1 (DLD1 tumor cell line)
"COc1cc(OC)c(/C=C/S(=O)(=O)Nc2ccc(OC)c(NC(C)=O)c2)c(OC)c1 [Example 2, (E)-2,4,6-Trimethoxystyryl-N-[(3-acetamido)4-methoxyphenyl]-sulfonamide]",+ (A (+) in the table indicates that the compound showed tumor cell killing activity at a concentration of less than 20 micromolar),+ (A (+) in the table indicates that the compound showed tumor cell killing activity at a concentration of less than 20 micromolar),+ (A (+) in the table indicates that the compound showed tumor cell killing activity at a concentration of less than 20 micromolar),+ (A (+) in the table indicates that the compound showed tumor cell killing activity at a concentration of less than 20 micromolar)
"COc1cc(OC)c(/C=C/S(=O)(=O)Nc2ccc(OC)c(NCC(=O)O)c2)c(OC)c1 [Example 5, (E)-2,4,6-Trimethoxystyryl-N-[(3-carboxymethylamino)-4-methoxyphenyl]sulfonamide]",+ (A (+) in the table indicates that the compound showed tumor cell killing activity at a concentration of less than 20 micromolar),+ (A (+) in the table indicates that the compound showed tumor cell killing activity at a concentration of less than 20 micromolar),+ (A (+) in the table indicates that the compound showed tumor cell killing activity at a concentration of less than 20 micromolar),+ (A (+) in the table indicates that the compound showed tumor cell killing activity at a concentration of less than 20 micromolar)
"COc1cc(OC)c(/C=C/S(=O)(=O)Nc2ccc(OC)c(NC(=O)CO)c2)c(OC)c1 [Example 6, (E)-2,4,6-Trimethoxystyryl-N-[(3-hydroxyacetamido)-4-methoxy-phenyl]sulfonamide]",+ (A (+) in the table indicates that the compound showed tumor cell killing activity at a concentration of less than 20 micromolar),+ (A (+) in the table indicates that the compound showed tumor cell killing activity at a concentration of less than 20 micromolar),+ (A (+) in the table indicates that the compound showed tumor cell killing activity at a concentration of less than 20 micromolar),+ (A (+) in the table indicates that the compound showed tumor cell killing activity at a concentration of less than 20 micromolar)
"COc1cc(OC)c(/C=C/S(=O)(=O)Nc2ccc(OC)c(NC(=O)COC(C)=O)c2)c(OC)c1 [Example 4, (E)-2,4,6-Trimethoxystyryl-N-[(3-acetoxyacetamido)-4-methoxy-phenyl]sulfonamide]",+ (A (+) in the table indicates that the compound showed tumor cell killing activity at a concentration of less than 20 micromolar),+ (A (+) in the table indicates that the compound showed tumor cell killing activity at a concentration of less than 20 micromolar),+ (A (+) in the table indicates that the compound showed tumor cell killing activity at a concentration of less than 20 micromolar),+ (A (+) in the table indicates that the compound showed tumor cell killing activity at a concentration of less than 20 micromolar)
"COc1cc(OC)c(/C=C/S(=O)(=O)Nc2ccc(OC)c(NC(=O)CN3CCN(C)CC3)c2)c(OC)c1 [Example 8, (E)-2,4,6-Trimethoxystyryl-N-[3-(4-methylpiperazinyl)-acetamido-4-methoxyphenyl]sulfonamide]",+ (A (+) in the table indicates that the compound showed tumor cell killing activity at a concentration of less than 20 micromolar),+ (A (+) in the table indicates that the compound showed tumor cell killing activity at a concentration of less than 20 micromolar),+ (A (+) in the table indicates that the compound showed tumor cell killing activity at a concentration of less than 20 micromolar),+ (A (+) in the table indicates that the compound showed tumor cell killing activity at a concentration of less than 20 micromolar)
"COc1cc(OC)c(/C=C/S(=O)(=O)Nc2ccc(OC)c(NC(=O)CCl)c2)c(OC)c1 [Example 7, (E)-2,4,6-Trimethoxystyryl-N-[(3-chloroacetamido)-4-methoxyphenyl]-sulfonamide]",+ (A (+) in the table indicates that the compound showed tumor cell killing activity at a concentration of less than 20 micromolar),+ (A (+) in the table indicates that the compound showed tumor cell killing activity at a concentration of less than 20 micromolar),+ (A (+) in the table indicates that the compound showed tumor cell killing activity at a concentration of less than 20 micromolar),+ (A (+) in the table indicates that the compound showed tumor cell killing activity at a concentration of less than 20 micromolar)
"(E)-2,4,6-Trimethoxystyryl-N-[(3-amino)-4-methoxyphenyl]-sulfonamide-L-lysineamide hydrochloride [Example 3]",+ (A (+) in the table indicates that the compound showed tumor cell killing activity at a concentration of less than 20 micromolar),+ (A (+) in the table indicates that the compound showed tumor cell killing activity at a concentration of less than 20 micromolar),+ (A (+) in the table indicates that the compound showed tumor cell killing activity at a concentration of less than 20 micromolar),+ (A (+) in the table indicates that the compound showed tumor cell killing activity at a concentration of less than 20 micromolar)
"COc1cc(OC)c(/C=C/S(=O)(=O)Nc2ccc(OC)c(NCC(=O)N(C)C)c2)c(OC)c1 [Example 1, (E)-2,4,6-Trimethoxystyryl-N-[(3-N,N-dimethylacetamido)-4-methoxyphenyl]sulfonamide]",+ (A (+) in the table indicates that the compound showed tumor cell killing activity at a concentration of less than 20 micromolar),+ (A (+) in the table indicates that the compound showed tumor cell killing activity at a concentration of less than 20 micromolar),+ (A (+) in the table indicates that the compound showed tumor cell killing activity at a concentration of less than 20 micromolar),+ (A (+) in the table indicates that the compound showed tumor cell killing activity at a concentration of less than 20 micromolar)
